Assay results: patent US20110223157A1, “METHODS FOR THE TREATMENT OF NON-HODGKIN'S LYMPHOMAS USING LENALIDOMIDE, AND GENE AND PROTEIN BIOMARKERS AS A PREDICTOR” (priority 2010, published 2011)
Read-outs that look alike come from different tables or passages of the source.

Key:
Format in all cases: cell-based
DLBCL cell lines = assay: Proliferation of DLBCL cells in vitro, 3H-thymidine incorporation
Protocol: A panel of DLBCL cell lines of various cytogenetic features was tested for their sensitivity to the antiproliferative activity of lenalidomide. Cells were treated with lenalidomide for 5 days at 37° C.; proliferation of cells was determined using ^3H-thymidine incorporation method. Results of 3 independent experiments are shown (mean±SD). […] ABC-subtype cells appear more sensitive to the antiproliferative effect than other subtype cells including GCB-DLBCL and PMBL cells.

NFκB p50 = NFκB p50 activity, Active Motif transcription factor assay on nuclear extracts of treated DLBCL cells; conditions: 2 days; for inhibition at 1 µM / inhibition at 10 µM: read-out: P50 Inhibition (%) mean ± SD
Protocol: (§1) DLBCL cells were treated with lenalidomide or an IKK1/2 dual inhibitor (used as a positive inhibitor control) for 2 days. NFκB activity was examined with Active Motif transcription factor assay using nuclear extracts from cells following treatment.

NFκB p65 = NFκB p65 activity, Active Motif transcription factor assay on nuclear extracts of treated DLBCL cells; conditions: 2 days; for inhibition at 1 µM / inhibition at 10 µM: read-out: P65 Inhibition (%) mean ± SD
Protocol: as §1

[1] = 48 h, KARPS-1160p cells (PBML), 1 μM
[2] = Homo sapiens, OCI-Ly3, 48 h, OCI-Ly3 cells, 1 μM
[3] = Homo sapiens, OCI-Ly3, 48 h, OCI-Ly3 cells
[4] = Homo sapiens, OCI-Ly10, 48 h, OCI-Ly10 cells, 1 μM
[5] = Homo sapiens, OCI-Ly10, 48 h, OCI-Ly10 cells
[6] = Homo sapiens, TMD8, 48 h, TMD8 cells, 1 μM
[7] = Homo sapiens, TMD8, 48 h, TMD8 cells

For Nc1cccc2c1CN(C1CCC(=O)NC1=O)C2=O (stereo not drawn) [lenalidomide, 3-(4-amino-1-oxo-1,3-dihydro-isoindol-2-yl)-piperidine-2,6-dione], the Effect on proliferation (DLBCL cell lines; ABC cell lines U2392, RIVA, TMD8 and OCI-Ly10) was “significantly inhibits”, the “Starting concentration of significant (p<0.05) inhibition of proliferation” value (DLBCL cell lines; several DLBCL lines, particularly ABC-subtype Riva, U2932, TMD8, OCI-Ly10, 5 days at 37° C.) was 0.1 to 1 µM and the “Effect on NFκB p50 activity” value (NFκB p50; 1 μM, U2932 cells, p<0.05) was “significantly inhibits”. The inhibition at 1 µM (NFκB p50; [1]) was 14.5 ± 0.95%, the inhibition at 10 µM (NFκB p50; 48 h, KARPS-1160p cells (PBML)) was 16.4 ± 0.28% and the inhibition at 1 µM (NFκB p50; 48 h, RIVA cells, 1 μM) was 11.1 ± 11.7%. For the same compound, the inhibition at 10 µM (NFκB p50; 48 h, RIVA cells) was 28.6 ± 21%, the inhibition at 1 µM (NFκB p50; 48 h, U2392 cells, 1 μM) was 32.5 ± 14.3% and the inhibition at 1 µM (NFκB p50; [2]) was -10.3 ± 19.7%. The inhibition at 10 µM (NFκB p50; [3]) was -9.5 ± 19.1%, the inhibition at 1 µM (NFκB p50; [4]) was 22.7 ± 18.8% and the inhibition at 10 µM (NFκB p50; [5]) was 22.6 ± 14.1%. For the same compound, the inhibition at 1 µM (NFκB p50; [6]) was 14.4 ± 16.4%, the inhibition at 10 µM (NFκB p50; [7]) was 48.5 ± 40.2% and the “Effect on NFκB p65 activity” value (NFκB p65; 1 μM, U2932 cells, p<0.001) was “significantly inhibits”. It also gave an inhibition at 1 µM (NFκB p65; [1]) of 5.9 ± 0.49%, an inhibition at 10 µM (NFκB p65; 48 h, KARPS-1160p cells (PBML)) of 5.4 ± 0.35% and an inhibition at 1 µM (NFκB p65; 48 h, RIVA cells, 1 μM) of 19.3 ± 15.6%. It also gave an inhibition at 10 µM (NFκB p65; 48 h, RIVA cells) of 41.7 ± 26.8%, an inhibition at 1 µM (NFκB p65; 48 h, U2392 cells, 1 μM) of 40 ± 3.7% and an inhibition at 10 µM (NFκB p65; 48 h, U2392 cells) of 47.9 ± 6.2%. For the same compound, the inhibition at 1 µM (NFκB p65; [2]) was -17.4 ± 13.4%, the inhibition at 10 µM (NFκB p65; [3]) was -15.8 ± 15% and the inhibition at 1 µM (NFκB p65; [4]) was 27.6 ± 20.7%. The inhibition at 10 µM (NFκB p65; [5]) was 22 ± 12.2%, the inhibition at 1 µM (NFκB p65; [6]) was 14.1 ± 9% and the inhibition at 10 µM (NFκB p65; [7]) was 49.7 ± 32.8%.
